Source: publication PMC6158189, “A pharmacological probe identifies cystathionine β-synthase as a new negative regulator for ferroptosis” (Cell Death & Disease, 2018)

Experiments:
HEK293T cells = test: cell viability (CellTiter 96 Aqueous One); type: cell-based; conditions: 24 h
Experimental: Fig. 4 CH004 arrests the cell cycle at the S phase. a CH004 reduces the cell viability of HEK293T and HepG2 cells. HEK293T or HepG2 cells were treated with indicated concentrations of CH004 for 24 h before the cell number was analyzed using the CellTiter96® Aqueous One Solution Cell Proliferation Assay (Promega, Materials and Methods). The means at each concentration of one representative experiment are shown as percentages of DMSO (control, 100%). Means ± SDs (n = 3). b Overexpression of hCBS or knock-down of hCBS counteracts the growth inhibition exerted by CH004 in HEK293T cells. Indicated HEK293T stable cell lines were treated with the CH004 or DMSO for 24 h. Then, the cell viability was quantified with the CellTiter 96® Aqueous One Solution Cell Proliferation Assay under the standard protocol (Promega). […] The efficacy for CBS overexpression and knock-down in HEK293T cells was determined by Western blotting using an anti-CBS antibody (3E1, 1:2000; Abnova). c CH004 induces cell death in HEK293T and HepG2 cells. […] HEK293T cells were incubated with indicated compounds for 12 h, and the DNA content was quantified with propidium iodide to analyze the cell cycle distribution by flow cytometry (e). The cell cycle distributions for HEK293T-shNT and HEK293T-shCBS cells were accordingly analyzed and are shown in f. […]

[1] = target: T1, human dopa decarboxylase (hDDC) (Homo sapiens, UniProt P20711); test: purified hDDC enzyme assay; type: biochemical
T1 construct: made in house
Experimental: The IC50 values of CH004 for hCBS-413, hCBS-413 mutants, hCBS-FL, hCSE or hDDC were determined according to the standard assay conditions otherwise indicated.

T1 sequence (P20711 whole entry): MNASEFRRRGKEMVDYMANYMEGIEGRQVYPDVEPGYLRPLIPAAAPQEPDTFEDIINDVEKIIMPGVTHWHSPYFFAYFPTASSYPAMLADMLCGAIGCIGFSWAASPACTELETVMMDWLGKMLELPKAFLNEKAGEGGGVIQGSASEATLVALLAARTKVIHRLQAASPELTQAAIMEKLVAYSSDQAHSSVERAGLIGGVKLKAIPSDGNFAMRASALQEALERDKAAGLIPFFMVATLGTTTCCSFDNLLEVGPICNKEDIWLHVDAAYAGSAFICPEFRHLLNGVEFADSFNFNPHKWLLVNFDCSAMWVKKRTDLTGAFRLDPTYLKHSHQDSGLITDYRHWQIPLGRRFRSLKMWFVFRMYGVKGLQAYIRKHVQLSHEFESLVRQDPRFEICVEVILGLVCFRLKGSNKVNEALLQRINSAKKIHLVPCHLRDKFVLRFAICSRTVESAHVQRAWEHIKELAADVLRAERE

`Cn1nc(Cc2ccccc2)nc2c(=O)n(C)c(=O)nc1-2` [CH004, 3-benzyl-1,6-dimethylpyrimido[5,4-e][1,2,4]triazine-5,7(1H,6H)-dione] was tested, and the IC50 (HEK293T cells) was about 17 µM, the IC50 (HEK293T cells; Homo sapiens, HEK-293T) was 16.6 ± 5.3 µM and the “Fold selectivity hDDC vs hCBS-413” value ([1]; IC50 of hDDC / IC50 of hCBS-413) was > 400 (> 400) fold. The IC50 ([1]; standard conditions) was over 400 µM.
